Earlier results on four substances are cited in PMC3314724 (Journal of Molecular Modeling, 2011).

For data set [1], the system named is FPR1. As to conditions: FPR1 agonist class, peptide derivatives.
For data set [2], the system named is human neutrophils.

Regarding N-formyl-Met-Leu-Phe-OMe [fMLF-OMe], the “Observed value (activity class)” value in data set [1] is recorded as “Active”.
As for “N-formyl-Met-Leu-Ψ(COO) Phe-NHBzl [fMLΨ(COO)F-NHBzl]”, the “Observed value (activity class)” value in data set [1] is “Active”.
Take “boc-cis-4-mer-captomethyl-Pro-Leu-Phe-OMe [boc-cis-4-mercaptomethyl-PLF-OMe]”: in data set [1], the “Observed value (activity class)” value is “Active”.
The EC50 is the midpoint of the concentration-response curve. Consider N-formyl-Met-Leu-Phe [fMLF], for which the “Observed value (activity class)” value in data set [1] is “Active”. Moreover, the EC50 in data set [2] is approximately 0.5 nM.
